This note sets out measurements from US20230000827A1, “INHIBITORS OF HSP70 PROTEIN” (INSERM (INSTITUTE NATIONAL DE LA SANTÉ ET DE LA RECHERCHE …, priority 2019, published 2023).

A word on the IC50: it is the midpoint of a concentration-inhibition curve. A higher IC50 goes with weaker potency in that assay. What is called inhibition is the change of the read-out against control, counted positive when it falls.

One data set deals with recombinant HSP70 (Homo sapiens, UniProt P0DMV8). The data set is described as follows: HSP70 chaperone activity, protein thermolability (aggregation) assay. Type of data set: biochemical. The following applies: 1 μM, heat shock 55° C., 1 h, recombinant HSP70 10 ng. How it is done: FIG. 2: Small molecules hits A, B and C inhibit HSP70 chaperone activity. A) Protein aggregation was determined in the presence or absence of recombinant HSP70 (10 ng). When indicated A18 or molecules A, B and C were added (1 μM). B) Protein aggregation was determined in the presence or absence of recombinant HSP70, HSC70 or HSP90 (10 ng).
When indicated A18 or molecules A, B and C were added (1 μM). A0, a non-relevant peptide aptamer was used here as a negative control. Values are normalized for each HSP. 100% chaperone effect being the inhibition of protein aggregation induced by addition of the recombinant chaperones.
HSP70 chaperone activity was evaluated with a protein thermolability assay. HSF1−/− MEFs extracts were incubated 20 minutes on ice in lysis buffer (50 mM HEPES, 150 mM NaCl, 5 mM EDTA, 0.1% NP40) supplemented with protease inhibitors (Roche, France). […]
Cellular extracts, to which recombinant HSP70, HSP90 or HSC70 were added with or without the small molecules to test, were diluted to a final concentration of 2 mg. mL-1 in pH 7 Tris-HCl buffer and heated at 55° C. during 1 hour. After g−16,000 centrifugation at 4° C. during 10 minutes, supernatant native protein quantity was determined by Lowry method (Dc Assay Kits, Bio-Rad). This final protein concentration was then compared to the initial protein concentration in supernatants to quantify denatured proteins. […]

Data set [1] concerns the target T1, HSP70/A18 interaction (Homo sapiens, UniProt P0DMV8).
T1 construct: expressed in transfected cells
Nature of the data set: AptaScreen high-throughput yeast two-hybrid dual luminescence screening of A18/HSP70 association. The conditions noted are these: for IC50: dose-response, inhibition of A18 binding to HSP70; for Confirmation inhibition: hit confirmation; for inhibition at 10 µM: molecules screened at 10 μM. Type of data set: cell-based. How it is done:
Table 1. High throughput screening of chemical agonists of the A18 peptide aptamer. The screening was based on the ability of the molecules to inhibit the association A18/HSP70.
A high-throughput screening assay, AptaScreen™ (developed by Aptanomics SA; (Baines I C et al. Drug Discov Today. 2006;11:334-341; Rerole A L, et al. Cancer Res 20119;71:484-495)) was performed by the Company Imaxio (Lyon, France) on a library of almost 60,000 small molecules. The AptaScreen™ assay is based on an automated dual luminescence (luc and ruc reporter genes) yeast two-hybrid assay, with HSP70 expressed as a ‘bait’ and A18 aptamer expressed as a ‘prey’. The HSP70/A18 interaction directs the transcription of the luc reporter gene, while in the same assay a control protein/aptamer couple directs the transcription of the ruc reporter. A small molecule can be considered as ‘hit candidate’ when it inhibits the interaction between HSP70 and A18 (i.e. decreases the luciferase signal), but not the control interaction (i.e. no or little change in the ruc signal). Molecules were screened at a concentration of 10 μM and then hit candidates were confirmed by dose-response assays, following the standard protocol (Rerole A L, et al. Cancer Res 20119;71:484-495).
A high-throughput screening assay, AptaScreen™ (developed by Aptanomics SA; ^22,23), was performed by the Company Imaxio (Lyon, France) on a library of almost 60,000 small molecules including most of the marketed drugs. The AptaScreen™ assay is based on an automated dual luminescence (luc and ruc reporter genes) yeast two-hybrid assay, with HSP70 expressed as a ‘bait’ and a peptide aptamer (A18), the inventors previously isolated that bound to the ATP domain of HSP70 expressed as a ‘prey’ (Rerole A L, et al. Cancer Res 20119;71:484-495). A small molecule can be considered as ‘hit candidate’ when it inhibits the interaction between HSP70 and A18 (i.e. decreases the luciferase signal). Molecules were screened at a concentration of 10 μM. Eight molecules (hit candidates) were initially identified. From the dose-response studies, three of them were retained on the basis of their specificity and high inhibitory activity against A18 binding to HSP70 (Table 1 and 2).

Data set [2] has as its target T1, HSP70/A18 interaction. The data set is described as follows: Ability to block HSP70/A18 interaction (Biacore). Type of data set: binding. The following applies: block of HSP70/A18 interaction; read-out: Activity profil/50% effective concentration (EC50). An excerpt:
Table 2. Selected “Hits” with high inhibitory activity against A18 binding to HSP70. Their chemical structure is shown as well as their ability to block HSP70/A18 interaction (Biacore).
(In general: SPR reads the build-up and loss of mass on a sensor chip optically.)

The subject of data set [3] is mouse colorectal cancer CT-26. Nature of the data set: Chemo-sensitization to cisplatin, cell survival colorimetric assay, CT-26. Type of data set: cell-based. The following applies: CT-26, molecule 2 μM with cisplatin 25 μM, 48 h. How it is done:
(§1) FIG. 3. The chemical molecule hits sensitize cancer cells to cisplatin. A) Human cervix HeLa or B) mouse colorectal cancer CT-26 cells were incubated during 48 h with cisplatin (25 μM) in the presence of absence of molecules A, B and C (2 μM). Cell survival was measured by a colorimetric assay staining.
(§2) 3.5×10^4 adherent cells were plated onto 24-well culture plates in complete medium. Cells were treated with small molecules at various concentrations (1 μM to 30 μM) for 4 hours to determine cellular IC50. Then, cells of half of each 24-well culture plates were treated with cisplatin (CDDP, 25 μM) for 48 hours. Cell death was measured by the crystal violet colorimetric assay staining.
(§3) To study the effect of the molecules in cancer cells, the inventors used two different cancer cells lines: Human cervix cancer Hela cells and mouse colorectal cancer CT-26. Cells were treated with the small molecule hit (2 μM) either alone or together with cisplatin for 48 hours and cell survival was determined. […] Cells seem to die mainly by apoptosis, as detected by the amount of Annexin V positive/propidium iodide negative cells obtained after treatment with the molecule (FIG. 5). The inventors conclude that the hit candidates block HSP70 chaperone activity and sensitize cancer cells to apoptosis induced by cisplatin.

Data set [4] deals with Human cervix cancer Hela cells. Nature of the data set: Chemo-sensitization to cisplatin, cell survival colorimetric assay, HeLa. The following applies: molecule 2 μM with cisplatin 25 μM, 48 h. It counts as cell-based. How it is done:
as §1, §2, §3

A short description of a further data set: Solubility (statement). Type of data set: physicochemical.

T1 sequence (P0DMV8 whole entry): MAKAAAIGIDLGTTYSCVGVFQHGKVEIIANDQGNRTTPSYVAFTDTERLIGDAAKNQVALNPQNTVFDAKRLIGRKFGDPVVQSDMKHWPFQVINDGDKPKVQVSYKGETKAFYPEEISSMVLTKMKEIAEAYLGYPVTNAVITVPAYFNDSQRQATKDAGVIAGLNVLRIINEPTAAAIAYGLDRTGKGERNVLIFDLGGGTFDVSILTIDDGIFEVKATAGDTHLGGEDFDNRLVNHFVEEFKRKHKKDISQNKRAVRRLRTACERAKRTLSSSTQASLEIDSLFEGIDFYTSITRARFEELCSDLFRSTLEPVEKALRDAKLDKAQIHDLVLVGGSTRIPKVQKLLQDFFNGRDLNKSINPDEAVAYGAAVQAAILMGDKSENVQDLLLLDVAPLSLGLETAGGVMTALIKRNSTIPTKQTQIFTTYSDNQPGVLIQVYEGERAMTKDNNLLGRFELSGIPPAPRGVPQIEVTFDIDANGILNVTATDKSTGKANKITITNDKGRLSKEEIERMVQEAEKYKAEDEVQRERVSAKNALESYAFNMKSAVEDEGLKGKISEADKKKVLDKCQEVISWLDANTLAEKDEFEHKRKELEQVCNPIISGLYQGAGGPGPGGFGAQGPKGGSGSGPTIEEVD
recombinant HSP70, sequence (P0DMV8 whole entry): as above

Turning to `O=C1N=C(N2CCCCC2)S/C1=C\c1ccccc1F` [Molecule A], the “Inhibition of HSP70 chaperone activity” value on recombinant HSP70 is given as “only partially blocked”. Further, at HSP70/A18 interaction [1], the HSP70 specificity entry is listed as “YES”, the 50% inhibitory concentration (IC50) came out at 19.6 µM, the Confirmation inhibition stood at 34 and the inhibition at 10 µM was found to be 105%. In addition, the EC50 at HSP70/A18 interaction [2] amounted to 19.6 µM.
For the compound `CCOc1ccc(C)cc1S(=O)(=O)n1nnc2ccccc21` [Molecule B], the “Cell death induced by cisplatin” value in data set [3] was “most important effect”. Also, the “Cell death induced by cisplatin” value in data set [4] was “most important effect”. For the same compound, the Solubility result in the data set “Solubility (statement)” is given as “hardly soluble”. For the same compound, the “Inhibition of HSP70 chaperone activity” value at recombinant HSP70 was “much more important inhibition”. Moreover, at HSP70/A18 interaction [1], the HSP70 specificity result is given as “YES”, the IC50 came to 0.2 µM, the Confirmation inhibition was found to be 59 and the inhibition at 10 µM was 105%. On HSP70/A18 interaction [2], the EC50 is 0.2 µM.
